Results: the supplement of paper PMC4862054

How the values were obtained:
Conditions in all cases: incubation time: 72 h
BT-474 [1] = test: drug sensitivity score (DSS), CellTiter-Glo (DSS (AUC-based score)); higher = stronger drug effect (viability inhibition or cytotoxicity); extreme values may be limits of the assay
Outline: (§1)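 Each compound occupied 5 concentrations in 10-fold steps over its own 10,000-fold range in 384-well plates, into which breast cancer cell lines were seeded as 20 µl suspension. Following 72 h of incubation, CellTox Green fluorescence (485/520 nm) was measured, and CellTiter-Glo luminescence was measured after 10 min at room temperature. Plates were individually normalised to 0.1 % DMSO and a positive kill control. From the area under the fitted dose-response curve, a drug sensitivity score was calculated.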

BT-549 = test: as above
Outline: as §1

CAL-120 [2] = test: as above
Outline: as §1

CAL-148 = test: as above
Outline: as §1

CAL-51 [3] = test: as above
Outline: as §1

CAL-85-1 = test: as above
Outline: as §1

DU-4475 = test: as above
Outline: as §1

HCC1143 = test: as above
Outline: as §1

HCC1599 = test: as above
Outline: as §1

HCC1937 = test: as above
Outline: as §1

HDQ-P1 = test: as above
Outline: as §1

Hs578T = test: as above
Outline: as §1

MCF-10A = test: as above
Outline: as §1

MDA-MB-231 [4] = test: as above
Outline: as §1

MDA-MB-436 [5] = test: as above
Outline: as §1

MDA-MB-453 = test: as above
Outline: as §1

MDA-MB-468 = test: as above
Outline: as §1

MFM-223 [6] = test: as above
Outline: as §1

SK-BR-3 = test: as above
Outline: as §1

CAL-120 [7] = test: normalised viability (% of control), CellTiter-Blue; higher = more viable cells (about 100 = DMSO control)
Description: (§2)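 DSRT, CellTiter-Blue viability, 72 h incubation. Signal is normalised to DMSO and benzethonium chloride controls. Value is the normalised response at dose 3.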

CAL-51 [8] = test: as above
Description: as §2

MDA-MB-436 [9] = test: as above
Description: as §2

MFM-223 [10] = test: as above
Description: as §2

BT-474 [11] = test: normalised viability (% of control), CellTiter-Blue; higher = more viable cells (about 100 = DMSO control)
Outline: (§3)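 Each value is normalised viability at a single listed concentration of the series. Breast cancer cell lines in 384-well plates were incubated 72 h with compound and read by CellTiter-Blue fluorescence at 560/590 nm, with vehicle set to 100 and a positive kill control to 0 on every plate.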

CAL-120 [12] = test: as above; remark: listed apart in the source
Outline: as §3

MDA-MB-231 [13] = test: as above
Outline: as §3

Row | Structure (SMILES) | drug sensitivity score (BT-474 [1]) | drug sensitivity score (BT-549) | drug sensitivity score (CAL-120 [2]) | drug sensitivity score (CAL-148) | drug sensitivity score (CAL-51 [3]) | drug sensitivity score (CAL-85-1) | drug sensitivity score (DU-4475) | drug sensitivity score (HCC1143) | drug sensitivity score (HCC1599) | drug sensitivity score (HCC1937) | drug sensitivity score (HDQ-P1) | drug sensitivity score (Hs578T) | drug sensitivity score (MCF-10A) | drug sensitivity score (MDA-MB-231 [4]) | drug sensitivity score (MDA-MB-436 [5]) | drug sensitivity score (MDA-MB-453) | drug sensitivity score (MDA-MB-468) | drug sensitivity score (MFM-223 [6]) | drug sensitivity score (SK-BR-3) | normalised viability (CAL-120 [7]; 100 nM) [%] | also measured
1 | COc1cc2c(NC3CCN(C(C)C)CC3)nc(N3CCC(F)(F)CC3)nc2cc1OCCCN1CCCC1 [UNC0642] | 1.75 | 0 | 0 | 3.63 | 0 | 5.86 | 0 | 0 | 0 | 1.97 | 0.93 | 0 | 3.66 | 3.72 | 4.42 | 5.58 | 7.75 | 3.31 | 2.71 | – | –
2 | Cc1ccc(NC(=O)c2ccc(CN3CCN(C)CC3)cc2)cc1Nc1nc(-c2cccnc2)cs1 [Masitinib] | 1.81 | 3.23 | 0 | 0 | 4.22 | 0 | 0 | 0 | 1.31 | 0.648 | 0.939 | 0 | 0 | 1.26 | 0 | 3.95 | 4.71 | 0.34 | 1.79 | 82.3 | normalised viability (CAL-51 [8]; 10 nM): 100%; normalised viability (MDA-MB-436 [9]; 100 nM): 71.6%; normalised viability (MFM-223 [10]; 100 nM): 101%; normalised viability (BT-474 [11]; 10 nM): 105%; normalised viability (BT-474 [11]; 1000 nM): 101%; normalised viability (BT-474 [11]; 10000 nM): 50.1%; normalised viability (CAL-120 [12]; 10 nM): 82.4%; normalised viability (CAL-120 [12]; 1000 nM): 81.8%; normalised viability (CAL-120 [12]; 10000 nM): 79.3%; normalised viability (MDA-MB-231 [13]; 10 nM): 96.7%; normalised viability (MDA-MB-231 [13]; 1000 nM): 91.1%; normalised viability (MDA-MB-231 [13]; 10000 nM): 50.4%
3 | CCOC(=O)CCNc1cc(N2CCc3ccccc3CC2)nc(-c2ccccn2)n1 [GSK-J4] | 12.1 | 22.2 | 10.7 | 17.3 | 21.5 | 15.1 | 13.5 | 12.5 | 12.1 | 12 | 10.5 | 10.4 | 12.1 | 14 | 15.7 | 17 | 19.9 | 12.5 | 10.7 | – | –
4 | O=P1(N(CCCl)CCCl)NCCCO1 (stereo not given) [Cyclophosphamide] | 0 | 0 | 0 | 0 | 0 | 0 | 0 | 0 | 0 | 0 | 0 | 0 | 0 | 0 | 0 | 0 | 0 | 0 | 0 | – | normalised viability (CAL-120 [7]; 400 nM): 85.6%; normalised viability (CAL-51 [8]; 40 nM): 107%; normalised viability (MDA-MB-436 [9]; 400 nM): 101%; normalised viability (MFM-223 [10]; 400 nM): 91.1%; normalised viability (BT-474 [11]; 40 nM): 121%; normalised viability (BT-474 [11]; 4000 nM): 119%; normalised viability (BT-474 [11]; 40000 nM): 127%; normalised viability (CAL-120 [12]; 40 nM): 97.1%; normalised viability (CAL-120 [12]; 4000 nM): 95.7%; normalised viability (CAL-120 [12]; 40000 nM): 83.8%; normalised viability (MDA-MB-231 [13]; 40 nM): 101%; normalised viability (MDA-MB-231 [13]; 4000 nM): 96.9%; normalised viability (MDA-MB-231 [13]; 40000 nM): 96.9%
5 | COC(=O)c1ccc2c(c1)NC(=O)/C2=C(\Nc1ccc(N(C)C(=O)CN2CCN(C)CC2)cc1)c1ccccc1 [BIBF 1120] | – | – | – | – | – | – | – | – | – | – | – | – | – | – | – | – | – | – | – | 95.4 | normalised viability (CAL-51 [8]; 10 nM): 104%; normalised viability (MDA-MB-436 [9]; 100 nM): 98.9%; normalised viability (MFM-223 [10]; 100 nM): 79.1%; normalised viability (BT-474 [11]; 10 nM): 127%; normalised viability (BT-474 [11]; 1000 nM): 92.5%; normalised viability (BT-474 [11]; 10000 nM): 58.6%; normalised viability (CAL-120 [12]; 10 nM): 82.6%; normalised viability (CAL-120 [12]; 1000 nM): 75.5%; normalised viability (CAL-120 [12]; 10000 nM): 29.7%; normalised viability (MDA-MB-231 [13]; 10 nM): 97.6%; normalised viability (MDA-MB-231 [13]; 1000 nM): 120%; normalised viability (MDA-MB-231 [13]; 10000 nM): 2.46%
6 | COc1cc(O)c2c(c1)/C=C/C[C@H](O)[C@H](O)C(=O)/C=C\C[C@H](C)OC2=O [(5Z)-7-Oxozeaenol] | 7.43 | 14 | 4.12 | 7.16 | 4.7 | 12.4 | 20 | 2 | 3.26 | 5.41 | 7.51 | 5.42 | 9.62 | 9.42 | 7.08 | 1.38 | 9.6 | 5.76 | 2.34 | – | –
7 | Nc1cc(C(F)(F)F)c(-c2cc(N3CCOCC3)nc(N3CCOCC3)n2)cn1 [BKM-120] | – | – | – | – | – | – | – | – | – | – | – | – | – | – | – | – | – | – | – | 81.3 | normalised viability (CAL-51 [8]; 10 nM): 98.5%; normalised viability (MDA-MB-436 [9]; 100 nM): 90.2%; normalised viability (MFM-223 [10]; 100 nM): 84%; normalised viability (BT-474 [11]; 10 nM): 129%; normalised viability (BT-474 [11]; 1000 nM): 64.3%; normalised viability (BT-474 [11]; 10000 nM): 11.1%; normalised viability (CAL-120 [12]; 10 nM): 81.1%; normalised viability (CAL-120 [12]; 1000 nM): 54.5%; normalised viability (CAL-120 [12]; 10000 nM): 13.5%; normalised viability (MDA-MB-231 [13]; 10 nM): 94.2%; normalised viability (MDA-MB-231 [13]; 1000 nM): 69.1%; normalised viability (MDA-MB-231 [13]; 10000 nM): 15.3%
8 | Cc1cc(Nc2cc(CN3CCOCC3)c3nc(C)c(Cc4ccc(Cl)cc4F)n3n2)n[nH]1 | – | – | – | – | – | – | – | – | – | – | – | – | – | – | – | – | – | – | – | 74.5 | normalised viability (CAL-51 [8]; 10 nM): 95%; normalised viability (MDA-MB-436 [9]; 100 nM): 108%; normalised viability (MFM-223 [10]; 100 nM): 67.9%; normalised viability (BT-474 [11]; 10 nM): 109%; normalised viability (BT-474 [11]; 1000 nM): 96.6%; normalised viability (BT-474 [11]; 10000 nM): 49.7%; normalised viability (CAL-120 [12]; 10 nM): 83.7%; normalised viability (CAL-120 [12]; 1000 nM): 57.6%; normalised viability (CAL-120 [12]; 10000 nM): 14.8%; normalised viability (MDA-MB-231 [13]; 10 nM): 102%; normalised viability (MDA-MB-231 [13]; 1000 nM): 83.6%; normalised viability (MDA-MB-231 [13]; 10000 nM): 18.7%
